Results reported in patent US6566081B1, “Methods of identifying a compound which modulates the non-transcriptional non-map-kinase induced effects of steroid hormones” (The Brigham and Women's Hospital, Inc., priority 1999, dated 2003).
Entries after “also recorded” stand apart in the source; their conditions may differ. Numbered stars: 1 amine (or outer) side, 2 acyl side, 3 side chain; on linkers, the order of the positions; unused ones are H or OH. Bridge positions count the residues as written; N and C are the ends. Square brackets hold non-standard residues; d marks the D form. Peptide text beside a SMILES is read from it. I, II: the chains in the order shown. Actinocin(9to1) = Cc1c2oc3c(C)ccc(C(=O)[*:1])c3nc-2c(C(=O)[*:2])c(N)c1=O; NMeV = CN[C@H](C(=O)O)C(C)C; Sar = CNCC(=O)O

Tests used:
PI3-kinase = PI3-kinase assay on p85 immunoprecipitates of endothelial cell lysates; format: cell-based, human; settings: for stimulation of PI3-kinase activity: 20 min, E2/αE2 10 nM, insulin 100 nM
Protocol: PI3kinase activity in endothelial cell lysates was assayed using the borate thin layer chromatography method, as described.^34 Following a 6 h incubation in serum- and estrogen-deficient medium 199, endothelial cells were treated according to the indicated conditions, washed, and harvested in ice-cold lysis buffer (137 mM NaCl, 20 mM Tris-HCl, pH 7.4, 1 mM CaCl2, 1 mM Mg Cl2, 0.1 mM Na3VO4, 1% NP-40). After pelleting the cell debris, the supernatant was incubated for 1 hour at 4° C. with 5 μL of a rabbit antiserum directed against the p85 regulatory subunit of the PI3-kinase (Upstate Biotechnology, Lake Placid, N.Y.), and immunoprecipitated with the addition of 50 μL of a 1:1 slurry of protein A-agarose for 1 hour at 4° C. Following centrifugation, the immunoprecipitates were washed three times with lysis buffer, three times with 0.1 M Tris-HCl, pH 7.4, 5 mM LiCl, 0.1 mM Na3VO4, followed by two washes with 10 mM Tris-HCl, pH 7.4, 150 mM NaCl, 5 mM EDTA, 0.1 mM Na3VO4.
The immunoprecipitates were then mixed with 50 μL Tris-HCl, pH 7.4, 150 mM NaCl, 5 mM EDTA, 20 μg of phosphatidylinositol (Sigma, Saint Louis, Mo.), 10 μL 100 mM MgCl2 and 5 μL of a 0.88 mM ATP, 20 mM MgCl2 solution, containing 30 μCi of [γ-^32P]ATP (3000 Ci/mmol; NEN Life Science Products, Boston, Mass.). […] The phospholipids were extracted with 160 μL of chloroform/methanol (1:1, v/v). 50 μL of the organic phase, containing the labeled PI3-kinase products were separated by borate thin layer chromatography on glass-backed Silica Gel 60 plates (EM Separations, Gibbstown, N.J.) pretreated with a solution containing 25 mM trans-1,2-diaminocyclohexane-N,N,N′N′-tetraacetic acid (CDTA, Sigma, Saint Louis, Mo.), 66% (v/v) ethanol and 0.06 N NaOH, dried for 1 hour and then baked at 100° C. for 15 minutes. The chromatography was developed with a solution containing 37.5% (v/v) methanol, 30% (v/v) chloroform, 22.5% (v/v) pyridine (Sigma, Saint Louis, Mo.), 1.33% (v/v) formic acid, […] boric acid and 8.5 mM butylated hydroxytoluene (Sigma, Saint Louis, Mo.), briefly dried and exposed to autoradiography.

eNOS = eNOS activity assay (conversion of [3H]-arginine to [3H]-citrulline) in treated human endothelial cells; format: cell-based; settings: for effect on E2-stimulated eNOS activity, later phase (≥15 min) or 30 min / effect on E2-stimulated eNOS activity, initial phase (first 5-10 min): E2 10 nM, wortmannin 30 nM, genistein 50 μM, PD98059 5 μM; for effect on E2-stimulated eNOS activity, later phase (≥15 min) or 30 min: ICI 10 μM, actinomycin D 2 h pretreatment
Protocol: Fetal bovine serum was deprived of estrogen by charcoal-stripping. Once grown to confluence the cells were replated on 1.5% gelatin-coated flasks at 20000 cells/cm^2. […] Cell number was assessed by direct cell counting of adherent cells, after trypsin detachment, in a Neubauer hemocytometer (VWR Scientifics). The percentage of cells excluding Trypan Blue after staining with the compound was taken as a measure of cell viability.
Endothelial cells were grown to confluence on 55 cm^2 culture dishes, treated according to the indicated conditions, and harvested in ice-cold PBS containing 1 mM EDTA. The cell lysates were pelleted in a microfuge (2 minutes, 13000 rpm, 4° C.) and subsequently homogenized in a buffer containing 25 mM Tris-HCl, pH 7.4, 1 mM EDTA, 1 mM EGTA. eNOS activity was determined by measuring the conversion of [^3H]-arginine to [^3H]-citrulline. Rat cerebellum extracts, containing elevated amounts of neuronal NOS, were used as positive controls, while endothelial cell extracts incubated in the presence of the competitive eNOS inhibitor L-NAME (1 mM) served as negative controls.
Human and bovine aortic endothelial cells were harvested enzymatically with Type IA collagenase (1 mg/mL).

NO release = assay: Nitrite assay (NO accumulation from endothelial cells); format: cell-based, human; settings: 30 min; E2/αE2 10 nM, insulin 100 nM, acetylcholine
Protocol: NO accumulation from serum-starved endothelial cells was determined by a modified nitrite assay using 2, 3 diaminonaphtalene as described previously.^33 Fluorescence of 1-(H)-naphtotriazole was measured with excitation and emission wavelengths of 365 and 450 nm, respectively. Standard curves were constructed with known amounts of sodium nitrite. Nonspecific fluorescence was determined in the presence of LNMA (3 mM).

Akt/PKB [1] = assay: Immunoblotting of Akt phosphorylation (Thr 308, Ser 473); format: cell-based, human; settings: E2/αE2 10 nM, insulin 100 nM, 20 min
Protocol: After the different treatments, serum-starved endothelial cells were rinsed once with ice-cold PBS before addition of the lysis buffer (100 mM Tris-HCl, pH 6.8, 4% SDS, 20% glycerol, 1 mM sodium orthovanadate, 1 mM NaF, and 1 mM phenylmethylsulfonylfluoride) to the dishes on an ice tray. The cell lysates were scraped, boiled, and centrifuged for 2 min at 13000 rpm. Total cell lysates (40 μg of protein) and low range molecular weight markers (BIO-RAD, Hercules, Calif.) were separated by SDS-polyacrylamide gel electrophoresis (12% running, 4% stacking), electrophoretically transferred to polyvinylidene fluoride membranes (Immobilon P, 0.45 μm pore size) and incubated overnight at 4° C. with blocking solution (5% skim milk in TBS—0.1% Tween 20). Affinity-purified rabbit antibodies (0.4 μg of IgG/ml) vs. Akt, (Ser 473) phospho-Akt or (Thr 308) phospho-Akt (New England BioLabs, Beverly, Mass.), Erk1/2, (Tyr 204) phospho-Erk-1/-2 (Calbiochem, San Diego, Calif.) were incubated with the membranes overnight at 4° C. in TBS—0.1% Tween 20 containing 5% BSA. The blots were washed three times with TBS—0.1% Tween 20 and then treated with donkey anti-rabbit antibody (1:4000 dilution) coupled to horseradish peroxidase. Immunodetection was accomplished using the enhanced chemoluminescence kit (ECL Kit, Amersham Corp.).

Akt/PKB [2] = assay: Akt kinase assay (immunoprecipitated Akt, GSK-3 peptide); format: cell-based, human; settings: E2/αE2 10 nM, insulin 100 nM, 20 min
Protocol: Immunoprecipitated Akt kinase activity was assayed on endothelial cell lysates by using the Aktl/PKBα immunoprecipitation kinase assay kit (Upstate Biotechnology, Lake Placid, N.Y.). Endothelial cells were starved in phenol red-free199 medium with 0.4% estrogen-deprived FBS, treated, washed, and then harvested in ice-cold Buffer A (50 mM Tris-HCl, pH 7.5, 1 mM EDTA, 1 mM EGTA, […] Na3VO4, 0.1% (v/v) 2-mercaptoethanol, 1% Triton X-100, 50 mM sodium fluoride, 5 mM sodium pyrophosphate, 10 mM sodium glycerophosphate, 0.1 mM PMSF, 1 μg/mL of aprotinin, pepstatin, leupeptin and 1 μM microcystin). The cleared cell lysates were incubated for 1 hour at 4° C. with 4 μg/tube of anit-Akt1/PKBα PH domain immunoaffinity purified sheep IgG, after which 50 μL of a 1:1 (v/v) protein G-agarose slurry was added for an additional hour of incubation at 4° C. After centrifugation, the immunoprecipitates were washed three times with Buffer A containing 0.5 M NaCl, then two times with Buffer B (50 mM Tris-HCl, pH 7.5, 0.03% (w/v) Brij-35, 0.1 mM EGTA, 0.1% (v/v) 2-mercaptoethanol), and finally twice with 1×Assay Buffer (20 mM MOPS, pH 7.2, 25 mM β-glycerol phosphate, 5 mM EGTA, 1 mM Na3VO4, 1 mM DTT).
The immunoprecipitates were resuspended in 10 μL of ice-cold 1×Assay Buffer, and were sequentially added: 10 μL of 40 μM PKA inhibitor peptide ([…]-NH2—corresponding to residues 7-23 of human PKA inhibitor), 10 μL of Akt/PKB specific substrate peptide (100 μM) (RPRAATF—corresponding to the phosphorylation site of glycogen synthase kinase-3, specifically targeted by Akt/PKB, but not by other protein kinases such as Rsk-2 and p70 S6 kinase), and 10 μL of [γ-^32P]ATP stock solution (1×Assay Buffer with 500 μM ATP, 75 mM MgCl2, containing 1 μCi/μL [γ^32-P]ATP, 3000 Ci/mmol). The reaction was incubated at 37° C. for 30 minutes, after which 40 μL of the supernatant was mixed with 20 μL of 40% TCA and incubated for 5 minutes at room temperature. 40 μL of each final fraction were spotted onto the center of a 2 cm×2 cm P81 phosphocellulose paper. The assay squares were washed three times with 0.75% phosphoric acid for five minutes at room temperature, then once with acetone. The squares were then transferred to vials containing a liquid scintillation cocktail and read in a scintillation counter. Blank reaction for the detection of the unspecific background were performed by substituting the cell lysate with Buffer A at the beginning of the procedure, and aspecific endogenous phosphorylation of proteins in the sample extract was estimated by substituting in some samples 1×Assay Buffer for the Akt/PKB specific substrate peptide.

ER-α / PI3-kinase p85α = molecular target: T1, ER-α / PI3-kinase p85α (Homo sapiens, UniProt P03372); assay: ER-α immunoprecipitation: co-precipitated p85α and associated PI3-kinase activity; format: cell-based; settings: ICI 10 μM, wortmannin, tamoxifen 1 μM, PD 98059 5 μM, actinomycin D 5 μM
T1 construct: endogenous in cells; host or cells: human endothelial cells (HSVEC), anti-ERα immunoprecipitate
T1 sequence (P03372 1-595): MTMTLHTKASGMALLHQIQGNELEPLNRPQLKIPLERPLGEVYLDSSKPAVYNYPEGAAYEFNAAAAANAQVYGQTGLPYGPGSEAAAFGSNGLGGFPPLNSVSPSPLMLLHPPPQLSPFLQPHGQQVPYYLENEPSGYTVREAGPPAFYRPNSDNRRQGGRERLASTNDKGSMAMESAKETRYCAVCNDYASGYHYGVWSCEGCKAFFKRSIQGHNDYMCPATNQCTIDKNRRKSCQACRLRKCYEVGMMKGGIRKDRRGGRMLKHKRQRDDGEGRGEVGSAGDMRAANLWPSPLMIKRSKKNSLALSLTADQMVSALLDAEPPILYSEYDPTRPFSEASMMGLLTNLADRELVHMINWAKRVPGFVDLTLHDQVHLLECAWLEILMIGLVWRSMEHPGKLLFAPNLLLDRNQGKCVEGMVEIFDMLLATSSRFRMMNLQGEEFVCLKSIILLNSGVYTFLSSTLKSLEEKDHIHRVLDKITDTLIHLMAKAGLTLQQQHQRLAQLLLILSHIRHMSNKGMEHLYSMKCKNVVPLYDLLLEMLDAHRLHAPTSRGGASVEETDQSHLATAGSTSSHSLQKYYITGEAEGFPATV

stimulation of Akt kinase activity (words) (Akt/PKB [2])	stimulation of Akt kinase activity (words) (Akt/PKB [2]; listed as 17a-estradiol)	SMILES	effect on E2-induced PI3-kinase activation (PI3-kinase; E2 10 nM 20 min, ICI 10 μM, wortmannin 30 nM)	effect on E2-stimulated eNOS activity, later phase (≥15 min) or 30 min (eNOS)	effect on E2-stimulated eNOS activity, later phase (≥15 min) or 30 min (eNOS; listed as Genistein)	effect on E2-stimulated eNOS activity, initial phase (first 5-10 min) (eNOS)	effect on E2-stimulated eNOS activity, initial phase (first 5-10 min) (eNOS; listed as Genistein)	stimulation of NO release / production (nitrite accumulation) (NO release)	Akt Ser 473 phosphorylation (Akt/PKB [1])	Akt threonine (Thr 308) phosphorylation (Akt/PKB [1])	stimulation of PI3-kinase activity (PI3-kinase)	stimulation of PI3-kinase activity (PI3-kinase; listed as αE2)	stimulation of eNOS activity by the substance alone (eNOS; E2/αE2 10 nM, insulin 100 nM, 30 min)	effect on insulin-induced eNOS activity (eNOS; insulin 100 nM, 30 min)	effect on basal eNOS activity, substance alone (eNOS; no E2)	effect on E2-stimulated ER-α-associated PI3-kinase activity (ER-α / PI3-kinase p85α)
–	–	O=c1c(-c2ccc(O)cc2)coc2cc(O)cc(O)c12 [genistein]	only minimally affected	only minimally affected; also recorded: not the later phase; also recorded: little or no inhibitory effect	do not block	able to block; also recorded: significantly blocked	blunt	–	–	–	–	–	–	–	–	–
ineffective	small increase	C[C@]12CC[C@@H]3c4ccc(O)cc4CC[C@H]3[C@@H]1CC[C@H]2O [17α-estradiol]	–	–	–	–	–	very low effect; also recorded: inability	ineffective	ineffective; also recorded: minimal increase	ineffective; also recorded: inability	lack	no effect; also recorded: inability	–	–	–
–	–	Cc1c2oc3c(C)ccc(C(=O)N[C@@H]4C(=O)N[C@H](C(C)C)C(=O)N5CCC[C@H]5C(=O)N(C)CC(=O)N(C)[C@@H](C(C)C)C(=O)O[C@@H]4C)c3nc-2c(C(=O)N[C@@H]2C(=O)N[C@H](C(C)C)C(=O)N3CCC[C@H]3C(=O)N(C)CC(=O)N(C)[C@@H](C(C)C)C(=O)O[C@@H]2C)c(N)c1=O [actinomycin D] (I: T[dV]P[Sar][NMeV] / II: T[dV]P[Sar][NMeV]; ester I:1-I:C, II:1-II:C; linker I:N-II:N via Actinocin(9to1))	–	did not affect; also recorded: no effect	–	–	–	–	–	–	–	–	–	did not affect; also recorded: no inhibitory effect	nor had any effects by itself; also recorded: no effect	not
